Assay results reported in ChEMBL document CHEMBL5463728, “Data for DCP probe BAY-6096” (2023).

How the values were obtained:
[1] = target: Alpha-2A adrenergic receptor (Homo sapiens, UniProt P08913); experiment: Adrenoceptor reporter cell assay (ADRA2A); format: functional
[2] = target: 5-hydroxytryptamine receptor 1D (Homo sapiens) (UniProt P28221); details: Compound concentration 10.0 uM
[3] = target: 5-hydroxytryptamine receptor 2A (Homo sapiens) (UniProt P28223); details: Compound concentration 10.0 uM
[4] = target: 5-hydroxytryptamine receptor 2B (Homo sapiens) (UniProt P41595); details: Compound concentration 10.0 uM
[5] = target: T1, 5-hydroxytryptamine receptor 2C (Homo sapiens) (UniProt P28335); details: Compound concentration 10.0 uM
T1 sequence (whole entry): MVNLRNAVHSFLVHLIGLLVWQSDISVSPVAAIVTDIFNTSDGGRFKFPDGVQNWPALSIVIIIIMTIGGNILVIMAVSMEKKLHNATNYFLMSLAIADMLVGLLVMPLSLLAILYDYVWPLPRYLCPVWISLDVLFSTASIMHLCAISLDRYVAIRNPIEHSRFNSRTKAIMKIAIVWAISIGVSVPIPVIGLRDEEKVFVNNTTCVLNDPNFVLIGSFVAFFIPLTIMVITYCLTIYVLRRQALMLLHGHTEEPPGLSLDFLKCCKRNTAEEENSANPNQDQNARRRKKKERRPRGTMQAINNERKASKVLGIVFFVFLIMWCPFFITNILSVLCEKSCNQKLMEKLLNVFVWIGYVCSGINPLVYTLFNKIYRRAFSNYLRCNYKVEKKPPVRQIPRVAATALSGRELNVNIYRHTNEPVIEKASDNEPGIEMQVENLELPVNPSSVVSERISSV

[6] = target: 5-hydroxytryptamine receptor 3A (Homo sapiens) (UniProt P46098); details: Compound concentration 10.0 uM
5-hydroxytryptamine receptor 3A (Homo sapiens), sequence (P46098 whole entry): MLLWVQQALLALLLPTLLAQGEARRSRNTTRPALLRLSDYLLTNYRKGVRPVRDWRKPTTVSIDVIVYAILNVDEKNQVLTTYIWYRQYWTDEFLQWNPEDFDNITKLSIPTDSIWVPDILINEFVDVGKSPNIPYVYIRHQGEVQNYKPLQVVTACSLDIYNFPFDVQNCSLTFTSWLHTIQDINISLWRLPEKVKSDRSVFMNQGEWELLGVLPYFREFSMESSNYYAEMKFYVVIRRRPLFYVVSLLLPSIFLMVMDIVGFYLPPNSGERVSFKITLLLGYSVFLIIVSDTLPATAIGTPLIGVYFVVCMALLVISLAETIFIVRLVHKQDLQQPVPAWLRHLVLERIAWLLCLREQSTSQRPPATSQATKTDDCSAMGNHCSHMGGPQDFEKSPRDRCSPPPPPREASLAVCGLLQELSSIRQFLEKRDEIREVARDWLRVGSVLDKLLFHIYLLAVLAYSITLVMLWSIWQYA

[7] = target: 5-hydroxytryptamine receptor 5A (Homo sapiens) (UniProt P47898); details: Compound concentration 10.0 uM
5-hydroxytryptamine receptor 5A (Homo sapiens), sequence (P47898 whole entry): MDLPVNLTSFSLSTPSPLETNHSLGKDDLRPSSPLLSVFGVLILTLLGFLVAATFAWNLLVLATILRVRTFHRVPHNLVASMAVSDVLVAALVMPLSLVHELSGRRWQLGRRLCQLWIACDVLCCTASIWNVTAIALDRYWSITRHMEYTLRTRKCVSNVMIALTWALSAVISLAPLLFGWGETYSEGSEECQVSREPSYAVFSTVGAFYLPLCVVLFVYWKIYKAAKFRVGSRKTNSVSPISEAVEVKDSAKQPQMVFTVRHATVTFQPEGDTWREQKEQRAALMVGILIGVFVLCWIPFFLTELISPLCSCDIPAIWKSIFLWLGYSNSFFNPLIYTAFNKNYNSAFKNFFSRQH

[8] = target: D(1A) dopamine receptor (Homo sapiens) (UniProt P21728); details: Compound concentration 10.0 uM
[9] = target: D(4) dopamine receptor (Homo sapiens) (UniProt P21917); details: Compound concentration 10.0 uM
[10] = target: Sodium-dependent noradrenaline transporter (Homo sapiens) (UniProt P23975); details: Compound concentration 10.0 uM
Sodium-dependent noradrenaline transporter (Homo sapiens), sequence (P23975 whole entry): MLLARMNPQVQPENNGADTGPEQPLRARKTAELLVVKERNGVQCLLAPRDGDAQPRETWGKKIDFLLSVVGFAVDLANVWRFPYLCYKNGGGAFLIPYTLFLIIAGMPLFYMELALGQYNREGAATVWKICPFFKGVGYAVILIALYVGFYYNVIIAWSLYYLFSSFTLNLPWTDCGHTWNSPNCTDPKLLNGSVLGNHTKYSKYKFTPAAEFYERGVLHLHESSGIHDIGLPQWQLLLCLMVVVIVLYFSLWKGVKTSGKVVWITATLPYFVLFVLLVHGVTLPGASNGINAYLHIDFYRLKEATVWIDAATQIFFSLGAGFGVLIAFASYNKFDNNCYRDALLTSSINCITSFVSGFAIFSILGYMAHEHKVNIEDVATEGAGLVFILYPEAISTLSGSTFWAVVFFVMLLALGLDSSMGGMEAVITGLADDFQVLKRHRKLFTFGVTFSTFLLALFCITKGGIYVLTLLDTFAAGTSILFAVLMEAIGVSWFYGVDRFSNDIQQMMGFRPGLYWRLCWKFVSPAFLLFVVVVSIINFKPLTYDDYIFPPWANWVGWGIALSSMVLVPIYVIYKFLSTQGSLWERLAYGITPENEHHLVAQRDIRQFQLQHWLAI

[11] = target: Mu-type opioid receptor (Homo sapiens) (UniProt P35372); details: Compound concentration 10.0 uM
Mu-type opioid receptor (Homo sapiens), sequence (P35372 whole entry): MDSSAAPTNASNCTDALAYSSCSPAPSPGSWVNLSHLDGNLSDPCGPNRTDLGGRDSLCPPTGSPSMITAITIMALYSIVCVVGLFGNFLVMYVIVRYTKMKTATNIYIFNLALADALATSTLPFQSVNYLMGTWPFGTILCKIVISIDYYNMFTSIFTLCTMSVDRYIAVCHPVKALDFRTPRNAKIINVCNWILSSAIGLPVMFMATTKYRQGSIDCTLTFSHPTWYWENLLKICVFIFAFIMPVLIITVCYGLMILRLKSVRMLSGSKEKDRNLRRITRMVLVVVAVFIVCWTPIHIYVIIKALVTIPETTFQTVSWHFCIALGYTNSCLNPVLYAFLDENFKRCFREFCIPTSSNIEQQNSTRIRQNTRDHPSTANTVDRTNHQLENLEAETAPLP

[12] = target: Delta-type opioid receptor (Homo sapiens) (UniProt P41143); details: Compound concentration 10.0 uM
[13] = target: Histamine H2 receptor (Homo sapiens) (UniProt P25021); details: Compound concentration 10.0 uM
Histamine H2 receptor (Homo sapiens), sequence (P25021 whole entry): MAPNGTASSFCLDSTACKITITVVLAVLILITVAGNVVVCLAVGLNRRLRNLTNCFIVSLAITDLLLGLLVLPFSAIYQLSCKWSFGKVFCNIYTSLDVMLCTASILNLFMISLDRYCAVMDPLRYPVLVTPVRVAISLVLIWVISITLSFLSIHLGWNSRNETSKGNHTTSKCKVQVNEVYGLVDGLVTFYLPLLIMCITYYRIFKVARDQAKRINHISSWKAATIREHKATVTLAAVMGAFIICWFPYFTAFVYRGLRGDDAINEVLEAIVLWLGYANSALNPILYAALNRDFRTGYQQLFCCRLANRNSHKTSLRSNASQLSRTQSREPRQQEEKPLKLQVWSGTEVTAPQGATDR

[14] = target: Histamine H3 receptor (Homo sapiens) (UniProt Q9Y5N1); details: Compound concentration 10.0 uM
Histamine H3 receptor (Homo sapiens), sequence (Q9Y5N1 whole entry): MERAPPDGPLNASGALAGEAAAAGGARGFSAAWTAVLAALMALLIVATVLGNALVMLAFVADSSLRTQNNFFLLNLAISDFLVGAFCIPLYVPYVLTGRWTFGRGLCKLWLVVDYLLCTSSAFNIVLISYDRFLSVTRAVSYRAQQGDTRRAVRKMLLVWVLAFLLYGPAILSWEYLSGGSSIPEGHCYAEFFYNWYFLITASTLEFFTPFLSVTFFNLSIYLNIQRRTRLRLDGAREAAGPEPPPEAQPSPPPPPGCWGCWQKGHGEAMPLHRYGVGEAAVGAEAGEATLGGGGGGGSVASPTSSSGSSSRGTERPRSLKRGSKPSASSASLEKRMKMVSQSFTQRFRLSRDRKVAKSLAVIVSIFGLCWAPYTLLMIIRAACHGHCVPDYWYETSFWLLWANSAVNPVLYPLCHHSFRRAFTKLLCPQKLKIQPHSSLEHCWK

[15] = target: Alpha-1A adrenergic receptor (Homo sapiens) (UniProt P35348); details: Compound concentration 10.0 uM
[16] = target: Alpha-2A adrenergic receptor (Homo sapiens) (UniProt P08913); details: Compound concentration 10.0 uM
Alpha-2A adrenergic receptor (Homo sapiens), sequence (P08913 whole entry): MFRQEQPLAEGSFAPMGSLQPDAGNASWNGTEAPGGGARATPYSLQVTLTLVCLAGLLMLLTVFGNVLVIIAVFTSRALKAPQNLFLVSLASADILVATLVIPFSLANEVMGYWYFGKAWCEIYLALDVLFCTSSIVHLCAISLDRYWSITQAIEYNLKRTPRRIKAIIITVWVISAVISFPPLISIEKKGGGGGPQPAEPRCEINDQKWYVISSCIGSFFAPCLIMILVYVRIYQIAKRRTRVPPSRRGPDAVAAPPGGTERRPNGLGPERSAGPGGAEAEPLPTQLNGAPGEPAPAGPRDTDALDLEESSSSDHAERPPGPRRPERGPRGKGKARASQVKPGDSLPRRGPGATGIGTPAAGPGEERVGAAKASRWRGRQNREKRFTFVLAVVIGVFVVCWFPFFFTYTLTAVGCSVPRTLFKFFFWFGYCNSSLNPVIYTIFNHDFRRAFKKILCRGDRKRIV

[17] = target: Alpha-2C adrenergic receptor (Homo sapiens) (UniProt P18825); details: Compound concentration 10.0 uM
Alpha-2C adrenergic receptor (Homo sapiens), sequence (P18825 whole entry): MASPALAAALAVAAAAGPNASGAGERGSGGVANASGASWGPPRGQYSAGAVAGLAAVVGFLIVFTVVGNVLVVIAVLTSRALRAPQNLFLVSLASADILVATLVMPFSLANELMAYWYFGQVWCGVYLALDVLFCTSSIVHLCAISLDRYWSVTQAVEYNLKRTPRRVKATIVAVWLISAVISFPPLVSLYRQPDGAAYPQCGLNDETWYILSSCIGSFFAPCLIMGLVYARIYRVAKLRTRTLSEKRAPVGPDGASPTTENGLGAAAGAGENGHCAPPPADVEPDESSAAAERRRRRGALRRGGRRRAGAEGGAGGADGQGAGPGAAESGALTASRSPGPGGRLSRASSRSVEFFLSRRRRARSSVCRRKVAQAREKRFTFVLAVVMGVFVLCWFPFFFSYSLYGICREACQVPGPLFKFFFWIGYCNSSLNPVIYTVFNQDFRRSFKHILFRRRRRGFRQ

[18] = target: Beta-1 adrenergic receptor (Homo sapiens, UniProt P08588); details: Compound concentration 10.0 uM
[19] = target: T2, Muscarinic acetylcholine receptor M2 (Homo sapiens) (UniProt P08172); details: Compound concentration 10.0 uM
T2 sequence (whole entry): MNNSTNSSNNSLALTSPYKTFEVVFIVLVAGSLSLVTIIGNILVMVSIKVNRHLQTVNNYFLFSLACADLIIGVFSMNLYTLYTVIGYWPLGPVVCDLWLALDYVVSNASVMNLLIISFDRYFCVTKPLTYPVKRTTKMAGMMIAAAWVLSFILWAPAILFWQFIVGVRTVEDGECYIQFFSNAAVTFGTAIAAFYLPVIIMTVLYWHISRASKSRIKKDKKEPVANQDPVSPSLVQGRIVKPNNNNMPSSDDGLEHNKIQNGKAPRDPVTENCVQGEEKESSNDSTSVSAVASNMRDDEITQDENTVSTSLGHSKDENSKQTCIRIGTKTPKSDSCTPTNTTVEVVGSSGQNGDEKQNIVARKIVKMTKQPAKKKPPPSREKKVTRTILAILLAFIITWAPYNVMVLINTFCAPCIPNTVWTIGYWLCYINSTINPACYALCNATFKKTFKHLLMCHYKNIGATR

[20] = target: Muscarinic acetylcholine receptor M3 (Homo sapiens) (UniProt P20309); details: Compound concentration 10.0 uM
Muscarinic acetylcholine receptor M3 (Homo sapiens), sequence (P20309 whole entry, looked up): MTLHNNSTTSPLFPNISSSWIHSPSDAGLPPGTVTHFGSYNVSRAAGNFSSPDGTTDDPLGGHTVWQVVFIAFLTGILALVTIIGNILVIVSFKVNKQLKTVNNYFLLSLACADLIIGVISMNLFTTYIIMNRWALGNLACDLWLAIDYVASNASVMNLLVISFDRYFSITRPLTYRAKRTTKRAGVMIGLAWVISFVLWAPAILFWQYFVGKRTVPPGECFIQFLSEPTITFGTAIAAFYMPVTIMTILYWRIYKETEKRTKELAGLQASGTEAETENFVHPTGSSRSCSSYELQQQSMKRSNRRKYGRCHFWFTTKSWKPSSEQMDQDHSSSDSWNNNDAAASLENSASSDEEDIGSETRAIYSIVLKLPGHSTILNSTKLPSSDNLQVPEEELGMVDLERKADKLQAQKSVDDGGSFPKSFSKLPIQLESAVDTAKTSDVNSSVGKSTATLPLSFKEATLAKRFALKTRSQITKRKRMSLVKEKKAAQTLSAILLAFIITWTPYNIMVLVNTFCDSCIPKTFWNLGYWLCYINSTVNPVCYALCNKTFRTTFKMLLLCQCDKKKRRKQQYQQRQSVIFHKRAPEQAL

[21] = target: T3, Muscarinic acetylcholine receptor M4 (Homo sapiens) (UniProt P08173); details: Compound concentration 10.0 uM
T3 sequence (whole entry): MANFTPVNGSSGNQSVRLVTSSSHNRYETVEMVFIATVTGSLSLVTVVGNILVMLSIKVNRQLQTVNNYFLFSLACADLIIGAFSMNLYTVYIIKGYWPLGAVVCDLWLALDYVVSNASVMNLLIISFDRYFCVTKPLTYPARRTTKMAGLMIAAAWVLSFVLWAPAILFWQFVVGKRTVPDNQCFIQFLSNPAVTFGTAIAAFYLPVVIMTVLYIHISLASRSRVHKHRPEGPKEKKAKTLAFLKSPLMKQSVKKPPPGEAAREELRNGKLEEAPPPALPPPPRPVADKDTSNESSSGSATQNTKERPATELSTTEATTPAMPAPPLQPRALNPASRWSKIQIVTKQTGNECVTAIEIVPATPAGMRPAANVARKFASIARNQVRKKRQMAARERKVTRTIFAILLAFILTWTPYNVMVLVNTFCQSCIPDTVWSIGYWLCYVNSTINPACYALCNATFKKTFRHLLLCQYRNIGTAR

[22] = target: Muscarinic acetylcholine receptor M5 (Homo sapiens) (UniProt P08912); details: Compound concentration 10.0 uM
[23] = target: Beta-3 adrenergic receptor (Homo sapiens, UniProt P13945); details: Compound concentration 10.0 uM
Beta-3 adrenergic receptor, sequence (P13945 whole entry, looked up): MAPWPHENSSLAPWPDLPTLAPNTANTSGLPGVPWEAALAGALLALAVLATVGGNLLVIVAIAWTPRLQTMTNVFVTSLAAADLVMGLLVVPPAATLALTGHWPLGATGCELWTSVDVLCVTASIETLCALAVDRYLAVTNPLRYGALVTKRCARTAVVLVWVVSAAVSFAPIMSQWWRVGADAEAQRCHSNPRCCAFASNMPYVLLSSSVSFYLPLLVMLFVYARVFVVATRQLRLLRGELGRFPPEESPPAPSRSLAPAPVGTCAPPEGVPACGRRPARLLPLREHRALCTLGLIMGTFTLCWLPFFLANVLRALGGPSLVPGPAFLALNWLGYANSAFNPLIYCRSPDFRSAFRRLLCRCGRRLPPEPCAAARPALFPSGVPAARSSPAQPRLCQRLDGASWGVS

[24] = target: GABA-A receptor; anion channel (Rattus norvegicus) (UniProt O09028+P15431+P18506+P18508+P19969+P20236+P23574+P23576+P28471+P28473+P30191+P62813+P63079+P63138+Q91ZM7+Q9ES14); details: Compound concentration 10.0 uM
[25] = target: Alpha-1D adrenergic receptor (Homo sapiens) (UniProt P25100); details: Compound concentration 10.0 uM
[26] = target: Sigma non-opioid intracellular receptor 1 (Homo sapiens) (UniProt Q99720); details: Compound concentration 10.0 uM

5-hydroxytryptamine receptor 1D (Homo sapiens), sequence (P28221 whole entry): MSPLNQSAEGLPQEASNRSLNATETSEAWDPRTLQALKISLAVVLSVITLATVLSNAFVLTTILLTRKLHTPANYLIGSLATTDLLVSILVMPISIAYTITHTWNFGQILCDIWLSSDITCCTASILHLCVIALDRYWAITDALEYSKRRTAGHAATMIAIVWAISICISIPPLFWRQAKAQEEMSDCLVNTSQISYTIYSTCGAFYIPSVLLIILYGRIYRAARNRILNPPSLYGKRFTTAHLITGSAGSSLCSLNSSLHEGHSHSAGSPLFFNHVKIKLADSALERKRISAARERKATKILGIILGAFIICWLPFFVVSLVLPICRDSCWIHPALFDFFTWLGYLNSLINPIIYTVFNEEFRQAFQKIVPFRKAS

SMILES | IC50 [1] | inhibition [2] [%] | inhibition [3] [%] | inhibition [4] [%] | inhibition [5] [%] | inhibition [6] [%] | inhibition [7] [%] | inhibition [8] [%] | inhibition [9] [%] | inhibition [10] [%] | inhibition [11] [%] | inhibition [12] [%] | inhibition [13] [%] | inhibition [14] [%] | inhibition [15] [%] | inhibition [16] [%] | inhibition [17] [%] | inhibition [18] [%] | inhibition [19] [%] | inhibition [20] [%] | also measured
CNc1cc[n+](CCNC(=O)c2ccn3c(-c4c(C)noc4C)cnc3c2)cc1 | 10 µM (not active) | 19.5 | 17 | 4.13 | -3.48 | 6.7 | 3.22 | -2.83 | 11.3 | -2.68 | 6.53 | 20.1 | 5.19 | 9.04 | 31.1 | 49.5 | 41.3 | 2.87 | 3.34 | 0.75 | inhibition [21]: -6.15%; inhibition [22]: -5%; inhibition [23]: 1.07%; inhibition [24]: 20.9%; inhibition [25]: 1.62%; inhibition [26]: 35.5%
Cc1noc(C)c1-c1cnc2cc(C(=O)NCCC[n+]3ccc(N(C)C)cc3)ccn12 | > 10 µM (not active) | 24.2 | -4.21 | 10.3 | -5.48 | 4.99 | -2.29 | -2.67 | 3.03 | 1.75 | 18.9 | -5.36 | 9.52 | 36 | 9.17 | 16.1 | 18.3 | 3.84 | 7.75 | 18 | inhibition [21]: 12.5%; inhibition [22]: -1.12%; inhibition [23]: -3.02%; inhibition [24]: -7.67%; inhibition [25]: 0.59%; inhibition [26]: 25.1%
